Results reported in patent US8956999B2, “Herbicides” (Syngenta Limited, priority 2007, dated 2015).

What was measured:
Type in all cases: in vivo
Solanum nigrum (SOLNI) [1] = experiment: Example B post-emergence herbicidal test, glasshouse; conditions: 312 h, rate 1000 g/ha, evaluated after 13 days, read-out: Post-Emergence Activity SOLNI (100=total damage to plant; 0=no damage to plant)
Method in brief: (§1)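 A 0.5% Tween 20 acetone/water (50:50) formulation, diluted in water, is sprayed onto potted plants one day after sowing or after 8 days of growth. Plants are kept at 24/16 °C day/night with 14 h light and 65% humidity. Damage is rated 0–100 after 13 days.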

[2] = system: Alopecurus myosuroides (ALOMY); experiment: as above; conditions: 312 h, evaluated after 13 days, read-out: Post-Emergence Activity ALOMY (100=total damage to plant; 0=no damage to plant); for pest or weed control at 1000 g/ha: rate 1000 g/ha
Method in brief: as §1

Avena fatua (AVEFA) [3] = experiment: as above; conditions: 312 h, evaluated after 13 days, read-out: Post-Emergence Activity AVEFA (100=total damage to plant; 0=no damage to plant); for pest or weed control at 1000 g/ha: rate 1000 g/ha
Method in brief: as §1

[4] = system: Amaranthus retoflexus (AMARE); experiment: as above; conditions: Amaranthus retroflexus, 312 h, evaluated after 13 days, read-out: Post-Emergence Activity AMARE (100=total damage to plant; 0=no damage to plant); for pest or weed control at 1000 g/ha: rate 1000 g/ha
Method in brief: as §1

[5] = system: Echinochloa crus-galli (ECHCG); experiment: as above; conditions: 312 h, evaluated after 13 days; for pest or weed control at 1000 g/ha: rate 1000 g/ha, read-out: Post-Emergence Activity ECHCG (100=total damage to plant; 0=no damage to plant)
Method in brief: as §1

Setaria faberi (SETFA) [6] = experiment: as above; conditions: 312 h, evaluated after 13 days; for pest or weed control at 1000 g/ha: rate 1000 g/ha, read-out: Post-Emergence Activity SETFA (100=total damage to plant; 0=no damage to plant)
Method in brief: as §1

Solanum nigrum (SOLNI) [7] = experiment: Example B pre-emergence herbicidal test, glasshouse; conditions: rate 1000 g/ha, evaluated after 13 days, 100=total damage to plant, 0=no damage to plant
Method in brief: as §1

[8] = system: Alopecurus myosuroides (ALOMY); experiment: as above; conditions: 312 h, evaluated after 13 days, 100=total damage to plant, 0=no damage to plant; for pest or weed control at 1000 g/ha: rate 1000 g/ha
Method in brief: as §1

Avena fatua (AVEFA) [9] = experiment: as above; conditions: 312 h, evaluated after 13 days, 100=total damage to plant, 0=no damage to plant; for pest or weed control at 1000 g/ha: rate 1000 g/ha
Method in brief: as §1

[10] = system: Amaranthus retoflexus (AMARE); experiment: as above; conditions: Amaranthus retroflexus, 312 h, evaluated after 13 days, 100=total damage to plant, 0=no damage to plant; for pest or weed control at 1000 g/ha: rate 1000 g/ha
Method in brief: as §1

[11] = system: Echinochloa crus-galli (ECHCG); experiment: as above; conditions: evaluated after 13 days, 100=total damage to plant, 0=no damage to plant; for Pre-Emergence Activity ECHCG: rate 1000 g/ha
Method in brief: as §1

Setaria faberi (SETFA) [12] = experiment: as above; conditions: evaluated after 13 days, 100=total damage to plant, 0=no damage to plant; for Pre-Emergence Activity SETFA: rate 1000 g/ha
Method in brief: as §1

| Compound | pest or weed control at 1000 g/ha (Solanum nigrum (SOLNI) [1]) [%] | pest or weed control at 1000 g/ha [2] [%] | pest or weed control at 1000 g/ha (Avena fatua (AVEFA) [3]) [%] | pest or weed control at 1000 g/ha [4] [%] | pest or weed control at 1000 g/ha [5] [%] | pest or weed control at 1000 g/ha (Setaria faberi (SETFA) [6]) [%] | Pre-Emergence Activity SOLNI (Solanum nigrum (SOLNI) [7]) | pest or weed control at 1000 g/ha [8] [%] | pest or weed control at 1000 g/ha (Avena fatua (AVEFA) [9]) [%] | pest or weed control at 1000 g/ha [10] [%] | Pre-Emergence Activity ECHCG [11] | Pre-Emergence Activity SETFA (Setaria faberi (SETFA) [12]) | other results |
| --- | --- | --- | --- | --- | --- | --- | --- | --- | --- | --- | --- | --- | --- |
| CCc1sc(-c2ccc(Cl)cc2)nc1C1=C(OC(=O)C(C)(C)C)C(C)(C)OC(C)(C)C1=O [Compound P2, 2,2-dimethylpropionic acid 4-[2-(4-chlorophenyl)-5-ethylthiazol-4-yl]-2,2,6,6-tetramethyl-5-oxo-5,6-dihydro-2H-pyran-3-yl ester] | 0 | 90 | 90 | 0 | 100 | 100 | 0 | 60 | 30 | 80 | 50 | 80 | – |
| Cc1sc(-c2ccc(Cl)cc2)nc1C1C(=O)C(C)(C)C(=O)C(C)(C)C1=O [Compound T1] | 0 | 90 | 80 | 0 | 90 | 90 | – | – | – | – | – | – | – |
| Cc1ocnc1C1C(=O)C(C)(C)C(=O)C(C)(C)C1=O [Compound T2] | 40 | 0 | 0 | 0 | 0 | 0 | 60 | 0 | 0 | 50 | 0 | 0 | – |
| Cc1sc(-c2ccc(F)cc2)nc1C1C(=O)C(C)(C)C(=O)C(C)(C)C1=O [Compound T8] | 20 | 40 | 0 | 0 | 70 | 80 | 0 | 30 | 20 | 0 | 0 | 0 | – |
| Cc1sc(-c2cc(Cl)ccc2Cl)nc1C1C(=O)C(C)(C)C(=O)C(C)(C)C1=O [Compound T10, 6-[2-(2,5-dichlorophenyl)-5-methylthiazol-4-yl]-2,2,4,4-tetramethyl-cyclohexane-1,3,5-trione] | 20 | 40 | 0 | 0 | 70 | 80 | 0 | 30 | 20 | 0 | 0 | 0 | – |
| Cc1sc(OCc2cnc(Br)s2)nc1C1C(=O)C(C)(C)OC(C)(C)C1=O [Compound T14] | – | – | – | – | – | – | 0 | 40 | 0 | 0 | 0 | 0 | pest or weed control at 250 g/ha ([2]; rate 250 g/ha): 40%; pest or weed control at 250 g/ha (Avena fatua (AVEFA) [3]; rate 250 g/ha): 0%; pest or weed control at 250 g/ha ([4]; rate 250 g/ha): 0%; pest or weed control at 250 g/ha ([5]; rate 250 g/ha, read-out: Post-Emergence Activity ECHGG (100=total damage to plant; 0=no damage to plant)): 70%; pest or weed control at 250 g/ha (Setaria faberi (SETFA) [6]; rate 250 g/ha, read-out: Post-Emergence Activity SEFTA (100=total damage to plant; 0=no damage to plant)): 90%; pest or weed control at 250 g/ha ([8]; rate 250 g/ha): 0%; pest or weed control at 250 g/ha (Avena fatua (AVEFA) [9]; rate 250 g/ha): 0%; pest or weed control at 250 g/ha ([10]; rate 250 g/ha): 0%; pest or weed control at 250 g/ha ([11]; Echinochloa crus-galli, 312 h, rate 250 g/ha, read-out: Pre-Emergence Activity ECHGG): 0%; pest or weed control at 250 g/ha (Setaria faberi (SETFA) [12]; Setaria faberi, 312 h, rate 250 g/ha, read-out: Pre-Emergence Activity SEFTA): 50% |
| Cc1sc(-c2ccc(Cl)c(C(F)(F)F)c2)nc1C1C(=O)C(C)(C)OC(C)(C)C1=O [Compound T15] | 0 | 40 | 0 | 0 | 70 | 0 | – | – | – | – | – | – | – |
